# In ChEMBL document CHEMBL6177939, “The role of silicon in drug discovery: a review” (RSC Med Chem, 2024):
# Columns and labels:
# [1] = system: Mythimna separata; test: Toxicity in Mythimna separata assessed as lethal dose; format: organism-based
# [2] = system: Plutella xylostella; test: Toxicity in Plutella xylostella assessed as lethal dose; format: organism-based
# [3] = biological target: Acetylcholinesterase (Homo sapiens, UniProt P22303); test: Inhibition of AChE (unknown origin) using acetylthiocholine iodide as substrate by Ellman's method
# [4] = system: BJAB; test: Cytotoxicity against human BJAB cells assessed as lethal dose measured after 48 hrs; format: functional; conditions: read-out: LD50 (the source's name)
# [5] = system: Pseudomonas aeruginosa; test: Antibacterial activity against Pseudomonas aeruginosa ATCC 27853 assessed as reduction in cell growth incubated for 18 hrs by two-fold serial dilution method; format: functional
# [6] = system: Escherichia coli; test: Antibacterial activity against Escherichia coli ATCC 25922 assessed as reduction in cell growth incubated for 18 hrs by two-fold serial dilution method; format: functional
# [7] = system: Acinetobacter baumannii; test: Antibacterial activity against Acinetobacter baumannii ATCC 19606 assessed as reduction in cell growth incubated for 18 hrs by two-fold serial dilution method; format: functional
# [8] = system: Staphylococcus aureus; test: Antibacterial activity against Staphylococcus aureus ATCC 25923 assessed as reduction in cell growth incubated for 18 hrs by two-fold serial dilution method; format: functional
# [9] = system: HepG2; test: Cytotoxicity against human HepG2 cells assessed as reduction in cell viability by XTT assay; format: functional, cell-based
# [10] = system: MCF7; test: Cytotoxicity against human MCF7 cells assessed as reduction in cell viability by XTT assay; format: functional, cell-based
# [11] = system: Penicillium chrysogenum; test: Antifungal activity against Penicillium chrysogenum ATCC 11709 assessed as reduction in fungal growth incubated for 24 hrs by CLSI micro-dilution method; format: functional
# [12] = system: Fusarium solani; test: Antifungal activity against Fusarium solani ATCC 20327 assessed as reduction in fungal growth incubated for 24 hrs by CLSI micro-dilution method; format: functional
# [13] = system: Pseudomonas aeruginosa; test: Antibacterial activity against Pseudomonas aeruginosa ATCC 27853 assessed as reduction in bacterial growth incubated for 24 hrs by CLSI micro-dilution method; format: functional
# [14] = system: Aspergillus niger; test: Antifungal activity against Aspergillus niger ATCC 16888 assessed as reduction in fungal growth incubated for 24 hrs by broth micro-dilution method; format: functional
# [15] = system: Bacillus sp.; test: Antibacterial activity against Bacillus sp. ATCC 19986 assessed as reduction in bacterial growth incubated for 24 hrs by CLSI micro-dilution method; format: functional; conditions: Bacillus sp. (in: firmicutes)
# [16] = Acute toxicity in po dosed mouse assessed as lethal dose; format: organism-based; conditions: in vivo
# [17] = system: Entamoeba histolytica; test: Antiparasitic activity against Entamoeba histolytica HM-1:IMSS assessed as reduction in parasite growth incubated for 48 hrs by MTT assay; format: functional, organism-based
# [18] = system: Giardia intestinalis; test: Antiparasitic activity against Giardia intestinalis Portland 1 assessed as reduction in parasite growth incubated for 48 hrs by MTT assay; format: functional, organism-based; conditions: Giardia duodenalis, Portland 1, 48 h
# [19] = system: HepG2; test: Antiproliferative activity against human HepG2 cells; format: functional, cell-based
# [20] = system: HT-1080; test: Cytotoxicity against human HT-1080 cells assessed as reduction in cell growth by measuring lethal concentration for 72 hrs by MTT assay; format: functional
# [21] = system: MG-22A; test: Cytotoxicity against mouse MG-22A cells assessed as reduction in cell growth by measuring lethal concentration for 72 hrs by MTT assay; format: functional
# [22] = system: NIH3T3; test: Cytotoxicity against mouse NIH3T3 cells assessed as reduction in cell growth by measuring lethal concentration for 72 hrs by MTT assay; format: toxicity, cell-based; conditions: nih3t3, 72 h
# [23] = system: WiDr; test: Growth inhibition of human WiDr cells measured for 48 hrs by SRB assay; format: functional
# [24] = system: HeLa; test: Growth inhibition of human HeLa cells measured for 48 hrs by SRB assay; format: functional
# [25] = system: T47D; test: Growth inhibition of human T47D cells measured for 48 hrs by SRB assay; format: functional
# [26] = biological target: Angiotensin-converting enzyme (Homo sapiens, UniProt P12821); test: Inhibition of ACE (unknown origin) using N-[3-(2-furyl)-acryloyl]- L -phenylalanylglycylglycin as substrate incubated for 5 mins
# [27] = system: MDA-MB-435; test: Cytotoxicity against human MDA-MB-435 cells assessed as reduction in cell viability incubated for 48 hrs by SRB assay; format: functional, cell-based; conditions: MDA-MB-435, 48 h
# [28] = system: MDA-MB-435; test: Growth inhibition of human MDA-MB-435 cells measured for 48 hrs by SRB assay; format: functional
# [29] = system: COLO 205; test: Antiproliferative activity against human COLO 205 cells assessed as reduction in cell growth incubated for 24 hrs by MTT assay; format: functional, cell-based; conditions: COLO 205, 24 h
# [30] = system: A2780; test: Antiproliferative activity against human A2780 cells assessed as reduction in cell growth incubated for 24 hrs by MTT assay; format: functional, cell-based; conditions: A2780, 24 h
# [31] = system: COLO 320; test: Antiproliferative activity against human COLO 320 cells assessed as reduction in cell growth incubated for 24 hrs by MTT assay; format: functional, cell-based; conditions: COLO 320, 24 h
# [32] = system: Aedes aegypti; test: […] activity against Aedes aegypti assessed as protection time at 0.5 microg/cm; format: functional
# [33] = system: P388; test: Antiproliferative activity against mouse P388 cells; format: functional, cell-based
# Chain of Angiotensin-converting enzyme (P12821 whole entry): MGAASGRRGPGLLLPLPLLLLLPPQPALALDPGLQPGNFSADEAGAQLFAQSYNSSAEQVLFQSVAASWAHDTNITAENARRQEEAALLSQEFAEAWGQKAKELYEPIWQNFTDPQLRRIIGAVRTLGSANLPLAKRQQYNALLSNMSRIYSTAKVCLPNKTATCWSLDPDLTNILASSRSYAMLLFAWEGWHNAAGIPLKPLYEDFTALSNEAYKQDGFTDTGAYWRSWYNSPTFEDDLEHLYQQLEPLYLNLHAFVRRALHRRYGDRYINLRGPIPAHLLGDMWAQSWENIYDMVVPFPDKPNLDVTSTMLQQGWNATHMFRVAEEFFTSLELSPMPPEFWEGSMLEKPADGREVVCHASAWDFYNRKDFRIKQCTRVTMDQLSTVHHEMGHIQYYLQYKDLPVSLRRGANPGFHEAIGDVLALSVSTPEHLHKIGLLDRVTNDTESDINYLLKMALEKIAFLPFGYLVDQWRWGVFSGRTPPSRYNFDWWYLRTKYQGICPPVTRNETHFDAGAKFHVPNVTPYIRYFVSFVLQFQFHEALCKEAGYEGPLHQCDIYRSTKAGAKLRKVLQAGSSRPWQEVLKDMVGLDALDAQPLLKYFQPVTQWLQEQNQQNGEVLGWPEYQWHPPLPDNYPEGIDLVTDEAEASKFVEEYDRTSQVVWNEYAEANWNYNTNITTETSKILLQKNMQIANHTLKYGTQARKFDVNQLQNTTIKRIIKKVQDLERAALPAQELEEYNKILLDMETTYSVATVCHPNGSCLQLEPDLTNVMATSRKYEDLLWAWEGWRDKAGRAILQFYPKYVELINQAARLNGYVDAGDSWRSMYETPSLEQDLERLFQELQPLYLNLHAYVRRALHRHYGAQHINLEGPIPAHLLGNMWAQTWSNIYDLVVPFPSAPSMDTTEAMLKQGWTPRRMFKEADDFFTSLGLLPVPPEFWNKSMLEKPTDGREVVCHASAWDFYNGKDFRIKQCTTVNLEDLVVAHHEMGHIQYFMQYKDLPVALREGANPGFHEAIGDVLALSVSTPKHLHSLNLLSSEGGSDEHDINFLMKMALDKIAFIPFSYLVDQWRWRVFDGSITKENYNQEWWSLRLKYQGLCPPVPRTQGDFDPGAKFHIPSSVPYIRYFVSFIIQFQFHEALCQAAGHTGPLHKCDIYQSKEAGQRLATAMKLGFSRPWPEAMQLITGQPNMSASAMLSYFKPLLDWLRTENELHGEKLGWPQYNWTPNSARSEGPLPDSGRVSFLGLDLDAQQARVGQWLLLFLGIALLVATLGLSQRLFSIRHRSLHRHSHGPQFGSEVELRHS
# Chain of Acetylcholinesterase (P22303 whole entry): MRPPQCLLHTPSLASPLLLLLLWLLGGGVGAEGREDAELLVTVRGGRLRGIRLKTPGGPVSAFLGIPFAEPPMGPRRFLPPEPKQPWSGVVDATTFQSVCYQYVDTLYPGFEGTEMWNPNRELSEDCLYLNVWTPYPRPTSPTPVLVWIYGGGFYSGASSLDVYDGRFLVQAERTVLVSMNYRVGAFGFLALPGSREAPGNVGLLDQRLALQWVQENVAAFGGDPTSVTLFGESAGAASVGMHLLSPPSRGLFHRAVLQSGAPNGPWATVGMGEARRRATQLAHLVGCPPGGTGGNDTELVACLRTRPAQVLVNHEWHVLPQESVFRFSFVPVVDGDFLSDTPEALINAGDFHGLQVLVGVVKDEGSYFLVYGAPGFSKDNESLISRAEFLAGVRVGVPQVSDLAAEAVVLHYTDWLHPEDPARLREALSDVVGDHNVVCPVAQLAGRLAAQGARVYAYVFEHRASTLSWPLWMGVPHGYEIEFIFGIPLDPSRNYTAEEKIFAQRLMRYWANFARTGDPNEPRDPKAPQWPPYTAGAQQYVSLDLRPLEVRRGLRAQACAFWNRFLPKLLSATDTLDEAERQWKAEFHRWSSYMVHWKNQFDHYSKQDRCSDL
smiles,measurement,setting,value
CCS(=O)(=O)c1cc([Si](C)(C)C)cnc1-c1nc2cc(S(=O)(=O)C(F)(F)F)ccc2o1,LC50,[1],4.8 µg/mL
same,LC50,[2],0.3 µg/mL
C[Si]1(Cl)C=C/C(=N\c2ccccc2)C1=P(c1ccccc1)(c1ccccc1)c1ccccc1 (stereo not drawn),IC50,[3],113 nM
CC(C)(C)[Si](C)(C)OC[C@H]1C[C@@H](n2cc(Br)c(=O)[nH]c2=O)C=C1CO,CC50,[4],46 µM
CC1C[N+]23CC(C)O[Si-]2(CCCN2C(=O)c4ccccc4C2=O)(O1)OC(C)C3 (stereo not drawn),MIC,[5],0.2 µg/mL
same,MIC,[6],0.2 µg/mL
same,MIC,[7],0.2 µg/mL
same,MIC,[8],0.2 µg/mL
Nc1ccc(O)c(/C=N/CCC[Si-]234OCC[N+]2(CCO3)CCO4)c1 (stereo not drawn),IC50,[9],150 µg/mL
same,IC50,[10],65 µg/mL
same,MIC,[11],1.2 µg/mL
same,MIC,[12],1.2 µg/mL
same,MIC,[13],1.2 µg/mL
same,MIC,[14],1.2 µg/mL
same,MIC,[15],1.2 µg/mL
CCC[Si](C)(COC(N)=O)COC(N)=O,LD50,[16],> 1000 mg/kg
C(=N\CCNCCC[Si-]123OCC[N+]1(CCO2)CCO3)/c1ccc2ccc3cccc4ccc1c2c34 (stereo not drawn),IC50,[17],56.9 µM
same,IC50,[18],560 nM
C[Si](C)(C)c1cc(C(F)(C(F)(F)F)C(F)(F)F)cc(Br)c1NC(=O)c1cccc(NC(=O)c2ccccc2)c1,LC50,[1],2 µg/mL
COc1ccc([Si](C)(C)[C@@H]2[C@H](CC(=O)N3CCC[C@H]3CO)O[C@@]3(C(=O)N(Cc4cccc(I)c4)c4ccccc43)[C@@H]2C)cc1,EC50,[19],16.6 µM
CCCCCCCCCCOCC[N+]1(CCC[Si](C)(C)C)CCc2ccccc2C1.[I-] (stereo not drawn),LC50,[20],0.1 µg/mL
same,LC50,[21],0.1 µg/mL
same,LC50,[22],0.1 µg/mL
CC(C)(C)[Si](Oc1ccc2oc(=O)ccc2c1)(c1ccccc1)c1ccccc1,GI50,[23],32.2 µM
same,GI50,[24],24.1 µM
same,GI50,[25],26.6 µM
CC(C)CC(NC(=O)c1ccccc1)[Si](C)(O)CC(C)C(=O)N1CCC[C@H]1C(=O)O (mixture of isomers),IC50,[26],14 nM
CC(C)CC(NC(=O)c1ccccc1)[Si](O)(O)CC(C)C(=O)N1CCC[C@H]1C(=O)O (mixture of isomers),IC50,[26],3040 nM
CC[C@@]1(O)C(=O)OCc2c1cc1n(c2=O)Cc2c-1nc1ccc(O)cc1c2[Si](C)(C)C(C)(C)C [AR-67],IC50,[27],14 nM
same,GI50,[28],21 nM
CC[C@@]1(O)C(=O)OCc2c1cc1n(c2=O)Cc2cc3ccccc3nc2-1 [CAMPTOTHECIN],IC50,[27],15 nM
CC[C@@]1(O)C(=O)OCc2c1cc1n(c2=O)Cc2c-1nc1ccccc1c2CC[Si](C)(C)C [COSITECAN],IC50,[29],1.5 nM
same,IC50,[30],1.8 nM
same,IC50,[31],1.5 nM
CCN(CC)C(=O)c1cccc(C)c1 [DIETHYLTOLUAMIDE],Time,[32],616 min
CCCC(C)(COC(N)=O)COC(N)=O [MEPROBAMATE],LD50,[16],700 mg/kg
C=C1C[C@](OC)([C@H](O)C(=O)N[C@H]2OCO[C@H]3[C@@H]2O[C@H](C[C@H](O)CO)C(C)(C)[C@@H]3OC)O[C@H](C)[C@@H]1C [MYCALAMIDE A],IC50,[33],0.1 ng/mL
C=C1C[C@](OC)([C@H](O)C(=O)N[C@H]2OCO[C@H]3[C@@H]2O[C@H](C[C@@H](CO)OC)C(C)(C)[C@@H]3OC)O[C@H](C)[C@@H]1C [MYCALAMIDE B],IC50,[33],0.1 ng/mL
